89 molecules from a melting point compilation (Tetko et al.; mined from patent text by program, amines drawn as free bases though some values may be those of a salt) can be followed below.

Regarding `COc1ccc(Cn2c(=O)cc(C)c3cnc(N4CCC[C@H]4CO)nc32)cc1Cl`, the melting point (commonly the temperature of the solid-liquid transition) lay within 150 to 153 °C.
The result for `O=Cc1cccc2cc3c(cc12)sc1ccccc13` reads 199 to 200 °C; that for `CCCC(=O)Nc1ccc2nc(S(N)(=O)=O)sc2c1`, 246 to 247 °C; that for `CC(C)(C)c1ccc2c(c1)C([Si](C)(C)C)c1cc(C(C)(C)C)ccc1-2`, 144 to 146 °C.
`OC(Cn1cncn1)(c1ccc(F)cc1)C1(Cl)CC1` (centres undefined): the melting point was 121 °C.
The value for `O=C(C=Cc1ccc(C(F)(F)F)cc1)N1CCc2c([nH]c3ccccc23)C1c1ccccc1` (centres undefined) was 211 °C; that for `CCC(=O)OC1=C(c2nnc(-c3ccccc3)o2)N(C)S(=O)(=O)c2ccccc21` was 143 to 146 °C.
With `COC12CC(C)(C)C(O1)C(=O)CC2C` (centres undefined), the melting point is 38 to 39 °C.
Consider `CCCc1nc2c(N)ncc(Br)c2n1CCOCCN`, for which the melting point fell in the range of 114 to 117 °C.
The result for `NC(CO)c1ccc(-c2ccc(SC(F)F)cc2)cc1` (centres undefined) reads 108 to 110 °C.
Turning to `S=C(Nc1ccccc1)Nc1ncccc1OCc1ccc(Cl)cc1`, the melting point is 162 to 164 °C.
Regarding `COCCNc1nc(N)nc(-c2ccccc2)c1-c1ccc(=O)n(C(C)C)n1`, the melting point was 168 to 170 °C.
The result for `COc1ccc2c(c1)C(=NN)Cc1c(C#N)cccc1S2` reads 186 to 187 °C; that for `COc1ccc(CN(CCN(C)CCCN=C(NC#N)NCCSCc2csc(NC(=N)N)n2)c2ccccn2)cc1`, 54 °C; that for `CCCCOc1ccc(-c2ncc(C(=O)OCC)cn2)cc1`, 99.1 °C.
The value for `O=C(O)c1ccc(Cl)c2c1[nH]c1ccccc12` was 280 °C.
Regarding `O=C(O)Cc1nc(-c2ccc(Cl)cc2)sc1Sc1ccccc1`, the melting point was in the range of 191 to 193 °C.
The value for `O=C(CC(=O)c1cc(CN2CCOCC2)sc1Cl)NCc1ccc(Cl)cc1` was 109 to 112 °C; that for `CCOC(=O)c1c(-c2ccccc2)nc(Cl)n1C` was 54 to 55 °C; that for `COC(=O)c1ccc(OCc2ccc3ccccc3n2)cc1C1(c2ccccc2)CC2CCC1C2` (centres undefined) was 106 to 107 °C.
The value for `Cc1ccc(-n2c(-c3cc(-c4ccc(Cl)cc4)c(N4CCOCC4)s3)nc3ccccc3c2=O)cc1` was 224 to 226 °C; that for `COc1ncnc(-c2cc([N+](=O)[O-])c(F)cc2F)c1C` was 114 to 117 °C.
The value for `NNC(=O)c1ccc(-c2csc(N=C(N)N)n2)o1` was 279 to 280 °C.
Take `Cn1c(SCC(=O)C23CC4CC(CC(C4)C2)C3)nnc1C1CC1`: the melting point was 96 to 97.5 °C.
The result for `Cc1nc2c(-c3ccc(N4CCN(C)CC4)cc3)cnn2c(N)c1-c1ccc(F)cc1` reads 289 to 291 °C.
The result for `N[C@H]1CC[C@@H](C(=O)N2CCC(c3[nH]nc4c3C(=O)c3c(NC(=O)NN5CCOCC5)cccc3-4)CC2)CC1` reads 202 to 204 °C; that for `Cc1ccc(N)c(C(=O)c2ccc(F)cc2)c1`, 70 to 71.5 °C; that for `CC(=NNC(N)=O)c1ccc(NS(C)(=O)=O)c(Oc2ccc(F)cc2F)c1`, 187 to 189 °C.
With `COC(=O)C(Cl)=Cc1cc(-n2ncc(C(F)(F)F)c(C)c2=O)c(F)cc1Cl`, the melting point was in the range of 142 to 145 °C.
The value for `N#Cc1cnn2c1NCCC2c1cccc(C(F)(F)F)c1` (centres undefined) was 192 to 194 °C.
The value for `O=Cc1ccccc1C(=O)c1ccc(Cl)cc1` was 112 to 113 °C; that for `O=C1CSCC(C(=O)O)N1` (centres undefined) was 152 to 153 °C.
The value for `CCOC(=O)c1cnc2cc(Cl)c(F)cc2c1O` was 283 to 290 °C; that for `COC(=O)c1cc(=O)c2cc(OC)cc([N+](=O)[O-])c2o1` was 192 to 193 °C.
`Cn1nc(C(C)(C)C)cc1O`: the melting point turned out to be 150 °C.
The result for `CC(C)CCC1C(=O)NS(=O)(=O)N1C` (centres undefined) reads 212 to 214 °C.
The result for `CC(C)COC(=O)N[C@@H](Cc1ccc2ccccc2c1)C(=O)CSCc1ccco1` reads 84 to 87 °C.
The result for `CC(C)(C)c1ccc(OCC(O)CN2CCC3(CC2)CSC2=C(O3)c3cc(N4CCOCC4)ccc3C(=O)C2=O)cc1` (centres undefined) reads 107 to 109 °C; that for `N#CCSC(C(=O)O)c1ccccc1` (centres undefined), 110 to 112 °C; that for `COc1cc(OCc2ccccn2)ccc1/C=C/c1cc(/C=C/c2cc3ccccc3[nH]2)n[nH]1`, 151 to 152 °C.
As for `CC(=NOCCC(N)=O)c1ccc(Cl)cc1`, the melting point lay in the range of 149 to 150 °C.
The value for `O=C(NCC12CC3CC(CC(C3)C1)C2)c1cc(-c2c(F)cccc2C(=O)O)ccc1Cl` was 108 to 113 °C.
The result for `O=C(CNS(=O)(=O)c1ccc2ccccc2c1)NCC(NC(=O)C1CCN(c2ccncc2)CC1)C(=O)C1CCCCN1` (centres undefined) reads 200 to 202 °C; that for `CC(C)(C)c1cc(/C=C/c2nnc(S(C)(=O)=O)s2)cc(C(C)(C)C)c1O`, 235 °C; that for `O=C1NCC=Cc2c1[nH]c(Br)c2Br`, 170 to 175 °C.
The result for `CC(CO)NCc1ccc(-c2cc3ncnc(Nc4ccc5[nH]ccc5c4)c3s2)cc1` (centres undefined) reads 160 to 175 °C; that for `COC(=O)C1=C(C)NC(C)=C(C(=O)OCc2ccc(OC)cc2)C1c1ccccc1[N+](=O)[O-]` (centres undefined), 152 °C; that for `CSc1ccc(N)c(C(=O)NCC2CCN(C(c3ccccc3)c3ccccc3)CC2)c1`, 156 to 157 °C.
Turning to `Fc1ccc(-n2nc(-c3nc(-c4ccccc4)cs3)c3c2C2CCC3C2)c(F)c1` (centres undefined), the melting point was in the range of 128 to 130 °C.
The result for `COC(=O)CCc1ccc(NC(=O)NNC(C)=O)cc1` reads 159 to 165 °C; that for `Clc1ccc2c(c1)C(c1ccccc1)=NCc1n[nH]cc1-2`, 241 to 243 °C.
The value for `Cc1cc2c(nc1N)C(=O)N(C(C)C1CC1)C2=O` (centres undefined) was 219 to 220 °C; that for `CC(C)C(=O)c1cn(Cc2c(F)cccc2F)c2sc(-c3ccc(NC(=O)C(C)(C)O)cc3)c(CN(C)Cc3ccccc3)c2c1=O` was 178 to 180 °C.
The value for `CC(C)N(CCOc1ccc(CC2SC(=O)NC2=O)cc1)C(C)C` (centres undefined) was 134 to 135 °C; that for `CCOC(=O)c1ccccc1CCc1ccc2oc(-c3nc(C(C)(C)C)cs3)cc2c1` was 75 to 77 °C; that for `COc1cn(C(C)c2ccccc2)c(=O)o1` (centres undefined) was 49 to 52 °C.
`COc1cccc2c1CC1c3c(cc(OC)c(OC)c3-2)CCN1C` (centres undefined) returned a melting point of 184 to 185 °C.
The result for `CCN(CC)CCCN1CCN(CCN2CCCCC2)C1=C(C#N)C#N` reads 58 to 61 °C; that for `CC1(C)CC(=O)CC(C)(P(=O)(O)O)C1` (centres undefined), 167 to 168 °C; that for `COc1cc(C(=O)NS(=O)(=O)c2ccccc2C)ccc1Cc1cn(C)c2ccc(CCNC(=O)N3CCOCC3)cc12`, 125 to 133 °C.
The result for `COc1cc(Nc2c(C#N)cnc3cc(-c4ccc(CN5CCC(O)CC5)cc4)sc23)c(Cl)cc1Cl` reads 149 to 150 °C; that for `CCc1cc2c(cc(C(N)=O)c(=O)n2Cc2ccc(-c3ccccc3-c3nnn(C(c4ccccc4)(c4ccccc4)c4ccccc4)n3)cc2)c(CC)n1`, 162 to 165 °C; that for `C[C@@H](N)C(=O)N(O)C(=O)OC(C)(C)C`, 115 to 117 °C.
The value for `CC(C)(O)c1ccc(-c2cnc3[nH]c(=O)n(CC4CCOCC4)c3n2)cc1` was 212 to 214 °C; that for `CCCCc1nc(Cl)c(CNC(=O)OCC)n1Cc1ccc(-c2ccccc2C(=O)O)cc1` was 144 to 147 °C; that for `NC(=O)NNC1=NC=Cc2ccccc2C1` was 188 to 189 °C.
On to `COCCn1cc(-c2ccccc2)[nH]c1=O`, for which the melting point is 152 to 153 °C.
The value for `CSc1c(CC(=O)O)n(Cc2ccc(Cl)cc2)c2ccc(CF)cc12` was 136 to 140 °C; that for `C=CCSC[C@H](NC(=O)OC(C)(C)C)C(=O)OC` was 37 to 38 °C.
The value for `CCOC(=O)c1cc(O)ccc1O` was 81 to 82 °C.
The result for `C=CC(C)(O)C=CC1=C(C)C(=O)C(OC(C)(C)OC)CC1(C)C` (centres undefined) reads 47.5 to 49 °C.
Take `CCOC(=O)c1cc(-c2cccc(OC)c2)[nH]c1N`: the melting point was in the range of 96 to 97 °C.
The value for `C=C(C(=O)O)c1ccc2c(=O)c3ccccc3ccc2c1` was 232 to 235 °C; that for `COc1ccc(N2CCN(c3c(C)c4c(c(C)c3Br)OC(C)(C)C4)CC2)cc1` was 180 to 181 °C.
`O=C1Nc2ccccc2N(C(=O)CN2CCCC(CN3CCCCC3)C2)c2ccccc21` (centres undefined): the melting point lay within 150 to 152 °C.
As to `Sc1ccc(-n2cnnn2)cc1`, the melting point is 120 to 122 °C.
`CC(=O)N1CCc2[nH]c3cc(-n4ccc(OCc5ccccc5)cc4=O)ccc3c2CC1` came in with a melting point of 250 to 254 °C.
The result for `CCn1cc(CN(C(=O)Nc2c(C)cccc2C)c2ccc(C(C)C)cc2)cn1` reads 108 °C.
The value for `COC(=O)/C=C/C#Cc1cccc(S(=O)(=O)Nc2ccccc2)c1` was 134 to 136 °C.
The result for `Cn1ncnc1COc1nn2c(-c3ccccc3F)nncc2c1-c1cccs1` reads 196 to 197 °C; that for `CCOC(=O)c1c(N2CCN(C(=O)c3cccs3)CC2)c2sccc2n(CC(=O)c2ccccc2)c1=O`, 240 °C; that for `CCOC(=O)C1(Nc2ccc(Oc3ccccc3)cc2)CC1`, 80 °C.
Regarding `C[C@@H]1Cc2cc(Cl)ccc2O[C@H]1c1ccc(Cl)cc1` (relative stereo), the melting point lay in the range of 135 to 137 °C.
The value for `CCCn1c(=O)[nH]c(=O)c2nc(-c3ccc(/C=C/C(=O)O)cc3)[nH]c21` was more than 300 °C; that for `Nc1c([N+](=O)[O-])ccc(Oc2cccc(Cl)c2)c1Cl` was 101 to 102 °C; that for `CC(C)(C)C(=O)Nc1ccncc1C(=NN)c1ccccc1F` was 78 to 82 °C.
In turn, `CCOC(=O)c1oc(SC)c2c1CCCC2=O` displayed a melting point of 123 to 124 °C.
The value for `CCOC(=O)c1c(C)nc(-c2ccccc2)nc1-c1ccc(F)cc1` was 82 to 94 °C; that for `COC(=O)C1=C2CCC(c3ccccc3)CN2CCC1=O` (centres undefined) was 150 to 151 °C.
